Data set [1] deals with NMDA-type glutamate receptors. As to the kind of experiment: Calcium imaging of reactivity to NMDA in differentiated cells. It counts as cell-based, human. The conditions noted are these: NT2-N cells, Fluo-8, 100 μM NMDA solution. On the procedure:
In order to confirm a statement of synaptic receptors in mature cells, a calcium influx via NMDA-type glutamate receptors was measured as follows.
A fluorescent calcium indicator Fluo-8 AM (AAT Bioquest) was dissolved in Mg-free HHBS (Hepes-buffered Hanks' balanced salt solution (1.26 mM CaCl2, 5.33 mM KCl, 0.44 mM KH2PO4, 4.17 mM NaHCO3, 137.93 mM NaCl, 0.34 mM Na2HPO4, 5.56 mM D-glucose, 20 mM HEPES, pH 7.4)) containing 0.1 μM glycine (4 μM, 2 μM, respectively). This solution (1 ml) was loaded into NT2-N cells under conditions of 37° C. and 5% CO2 (2 hours, 30 minutes, respectively), and fluo8 was loaded into the cells. Thereafter, an extracellular fluid was replaced with Mg-free HHBS containing 0.1 μM glycine, and it was used for the following measurement after being left in an incubator (37° C., 5% CO2) of a living cell time-lapse imaging device (BioStation IM-Q, Nikon) for 1 hour or more. For the NT2-N cells placed in the device, 5 to 10 fields of view to be analyzed were manually set, and for each field of view, fluorescence intensity was continuously recorded every 2 seconds for 5 minutes at an excitation wavelength of 480 nm/a fluorescence wavelength of 520 nm. Further, after a certain period of time elapsed from the start of recording, 100 μl of the 100 μM NMDA solution (Mg-free HHBS containing 0.1 μM glycine) prepared above was administered.

For another data set, the system named is NT2 cells. As to the kind of experiment: Differentiation induction from stem cells to nerve cells. It is filed as cell-based, human. The conditions noted are these: peretinoin 3 10 μM, ATRA 1 μM or 10 μM. On the procedure: NTERA-2 cl.D1 [NT2/D1] cells (ATCC CRL-1973) (hereinafter described as “NT2 cells”) derived from human pluripotent embryonic cancer were adhesion cultured in a maintenance culture medium (high glucose D-MEM (Sigma-Aldrich, D6429), 10% FBS, 100 U/ml penicillin/streptomycin) under conditions of 37° C. and 5% CO2 for 3 to 4 days on a 10 cm plastic dish until becoming confluent. The NT2 cells were exfoliated by Accutase (Innovative Cell Technologies, #AT104), passaged, and maintenance cultured for 50 days. The medium was changed three times a week. The maintenance cultured NT2 cells were dispersed in a petri dish for low-attached microorganisms (STAR SDish9015, RIKEN) at a concentration of 1.5×10^6 to 2.5×10^6/dish, and suspension cultured on a vibrator (100 rpm) under conditions of 37° C. and 5% CO2, and after one day, 1 μM or 10 μM ATRA was added to induce differentiation and form spheroids. After 14 days, the spheroids were recovered, seeded on a 10 cm dish coated with 5 μg/ml poly-D-lysine (PDL) (Sigma-Aldrich)/laminin (LAM) (iMatrix-511, Nippi), and adhesion cultured under conditions of 37° C. and 5% CO2. […]

The conditions of data set [2]: Non Patent Literature 2 and 3; cited from earlier work.
Data set [3] in a line: PET pharmacokinetic test of 11C-labeled acyclic retinoids in rats. It counts as in vivo, Sprague-Dawley rats. The settings on record: rat, i.v. On the procedure:
(§1) The ^11C-labeled acyclic retinoid 4c and the ^11C-labeled peretinoin 3 synthesized by the methods described above were administered intravenously (i.v.) to Sprague-Dawley rats and cynomolgus monkeys as a PET probe, and PET images were photographed.

Data set [4] in a line: PET pharmacokinetic test of 11C-labeled acyclic retinoids in cynomolgus monkeys. It is filed as in vivo. The settings on record: cynomolgus monkey, i.v. How it is done: as §1
For the next data set, the system named is cerebral hemorrhage. As to the kind of experiment: Effect on cerebral hemorrhage pathology (collagenase injection into striatum). It counts as in vivo, ICR mouse. How it is done: A male ICR mouse aged 8 to 10 weeks was placed in a brain stereotaxic apparatus under triple anesthesia, and bleeding was induced by injecting 0.035 U of collagenase type VII (Sigma) into a fixed coordinate (2.3 mm lateral to a median, 0.2 mm posterior to a bregma suture, 3.5 mm below a skull) in the striatum over 2.5 minutes using a 30 gauge needle. After that, the surface of the skull was reduced with dental cement, and breeding was continued. The peretinoin 3 (40 mg/kg) was suspended in water together with 0.5% carboxymethyl cellulose, and administered intragastrically using an oral sonde three times in total 3, 27, and 51 hours after the bleeding induction. Note that for comparison, 0.5% carboxymethyl cellulose without the peretinoin 3 was also administered intragastrically in a similar manner. A degree of motor dysfunction in the mouse was evaluated by performing two types of motor function tests (beam walking test, modified limb-placing test) 6, 24, 48, and 72 hours after the bleeding induction. Further, after completion of the motor function test 72 hours later, the mouse was perfused and fixed under anesthesia, and the brain was extracted to prepare a frozen coronary section having a thickness of 16 μm. The effects of the peretinoin 3 were evaluated by identifying microglia, astrocytes, and neurons in the brain tissue, respectively, through immunohistochemistry using antibodies against Iba1, GFAP, and NeuN, and quantifying the number of cells in a given area or an immune reaction positive area.

The test system of data set [5] is cerebral cortex-striatal tissue sections. The data set is described as follows: Inhibitory effect on thrombin toxicity in cultured brain slices. It counts as cell-based, Wistar/ST rat. The conditions noted are these: 10, 20, 30 μM; thrombin 100 U/ml, 72 hours. On the procedure: (§2) Thrombin is known to induce cerebral cortex cell death and striatal tissue atrophy. Therefore, an experiment for evaluating thrombin toxicity was performed. In other words, a coronal section having a thickness of 300 μm was prepared from a brain of a Wistar/ST rat aged 2 to 3 days after birth, a fan-shaped tissue piece including a cerebral cortex and striatum was cut out, and then left to stand on a porous membrane (Millicell-CM, Millipore Corporation), and culture was maintained at a gas-liquid interface under a conditions of 34° C./5% CO2 (medium composition: 50% minimal essential medium, 25% Hanks' balanced salt solution, 25% horse serum). […] PI fluorescence images were acquired using a fluorescence microscope (Keyence) 72 hours after a start of thrombin treatment, and a degree of cell death was evaluated using fluorescence intensity of a cortical region as an index (sections of 100 μM NMDA treated for 72 hours were provided for each experiment, and their PI fluorescence intensity was standardized as 100%). Further, an area of a striatal region in each tissue piece was measured from bright field images of cultured tissue pieces acquired before and after the thrombin treatment, and a rate of tissue atrophy due to the thrombin treatment was quantified.

For data set [6] the test system is unchanged. As to the kind of experiment: Evaluation using K252a (TrkB inhibitor) of the cytoprotective effect against thrombin. It is filed as cell-based, Wistar/ST rat. The settings on record: thrombin + K252a (3 μM). On the procedure: as §2, with “quantified. […]” for “quantified.”
[7] abbreviates: radioactivity in brain for each time.
[8] abbreviates: radioactivity in brain over time.
The mark [9] stands for this setting: 40 mg/kg intragastrically, 6, 24, 48, 72 hours after bleeding.
Where [10] appears, read: 40 mg/kg intragastrically, brain taken 72 hours after bleeding.

In the case of `CC1=C(/C=C/C(C)=C/C=C/C(C)=C/C(=O)O)C(C)(C)CCC1` [ATRA, All-trans-retinoic acid, reference compound], the “expression of NMDA-type glutamate receptors in induced nerve cells (calcium imaging, NMDA)” value in data set [1] is on record as “expressed NMDA-type glutamate receptors”. Moreover, in the data set with NT2 cells, the “number of cells expressing MAP2 without expressing nestin (differentiation induction into nerve cells)” value was “increased”.

With `CC1(C)CCC(C)(C)c2cc(NC(=O)c3ccc([11C](=O)O)cc3)ccc21` [^11C-labeled Am80], in data set [2], the “intracerebral migration when used as a PET probe” value is reported as “no intracerebral migration was observed”.

For `Cc1cc2c(cc1-n1nnc3cc([11C](=O)O)ccc31)C(C)(C)CCC2(C)C` [^11C-labeled CBt-PMN], the “intracerebral migration when used as a PET probe” value in data set [2] is recorded as “higher intracerebral migration than that of ^11C-labeled bexarotene”.

Regarding `CC(C)=CCC/C(C)=C/CC/C(C)=C/C=C/C([11CH3])=C/C(=O)O` [^11C-labeled peretinoin 3], the “migration into the brain (PET image)” value in data set [3] (PET probe) and in data set [4] (PET probe) was “migrated into a brain” in each case. The “start of migration into the brain after administration” value in data set [3] (setting [7]) and in data set [4] (setting [7]) was “within several minutes” in each case. The results for the “accumulation in the brain compared with the concentration when uniformly distributed throughout the body” value in data set [3] (setting [8]) and in data set [4] (setting [8]) were 1.3 times and 3.0 times, respectively.

Take `CC(C)=CCC/C(C)=C/CC/C(C)=C/C=C/C(C)=C/C(=O)O` [peretinoin 3, (2E,4E,6E,10E)-3,7,11,15-tetramethylhexadeca-2,4,6,10,14-pentaenoic acid]: the “changes in body weight after cerebral hemorrhage” value in the data set on cerebral hemorrhage (40 mg/kg intragastrically 3, 27, 51 hours after bleeding induction) is reported as “suppressed weight loss”. In the data set with cerebral hemorrhage (setting [9]), the “beam-walking test: fall rate” value is “decrease”, the “beam-walking test: score” value is “increase”, the “beam-walking test: walking width” value was “increase” and the “modified limb-placing test: deficit score” value is “decrease”. Moreover, in the data set with cerebral hemorrhage (40 mg/kg intragastrically, 24 to 72 hours after bleeding), the motor dysfunction entry is “significantly alleviated”. Besides, in the data set with cerebral hemorrhage (setting [10]), the “accumulation of activated microglia around a hematoma (Iba1 immunohistochemistry)” value is “significantly suppressed” and the “shedding of nerve cells in the hematoma (NeuN immunohistochemistry)” value is “suppressed”. For the same molecule, in data set [5], the “cerebral cortex cell death induced by thrombin (PI fluorescence)” value is “concentration-dependent and significantly suppressed”; the “striatal tissue atrophy induced by thrombin” value was “concentration-dependent and significantly suppressed”. In addition, the “expression of NMDA-type glutamate receptors in induced nerve cells (calcium imaging, NMDA)” value in data set [1] is reported as “expressed NMDA-type glutamate receptors”. Besides, the “number of cells expressing MAP2 without expressing nestin (differentiation induction into nerve cells)” value with NT2 cells was “increased”. In data set [6], the “inhibitory effect on striatal atrophy in the presence of K252a” value is “not blocked by K252a” and the “protective effect on cerebral cortex cells in the presence of K252a” value is “blocked by K252a”.

The values above are taken from patent publication US20240002313A1, “[11C]-LABELED ACYCLIC RETINOID, CENTRAL NERVOUS SYSTEM ACTIVATOR, AND PRODUCTION METHODS FOR SAME” (NATIONAL CENTER FOR GERIATRICS AND GERONTOLOGY, priority 2020, published 2024).
